# Laboratory results published in patent publication US12295997B2, “Prostate neoantigens and their uses” (Janssen Biotech, Inc., priority 2020, dated 2025).
# B1: P19 (peptide, listed as Homo sapiens)
# chain: WTPIPVLTRWPLPHPPPWRRATSCRMARSSPSATSGSSVRRRCSSLPSWVWNLAASTRPRSTPS
# Columns and labels:
# HLA-A*03:01 = HLA-A*03:01 (Homo sapiens, UniProt P04439); test: In vitro binding of neoantigens to class I MHC (UV peptide exchange, HLA class I ELISA); conditions: 100% = same binding as positive control peptide
# Method: The 9 mer peptides identified by bioinformatics analysis were analyzed for their binding propensities to 6 common HLA class I alleles (HLA-A*01:01, A*02:01, A*03:01, A*24:02, B*07:02, B*08:01). The principle of the method is briefly described below and consists of two parts, one involving exchange of peptide with a positive control induced by Ultraviolet (UV) radiation, and the second is an enzyme immunoassay to detect stable HLA-peptide and empty HLA complexes.
# HLA-bound peptides are critical for the stability of the HLA complex. A conditional HLA class I complex was stabilized by an UV-labile peptide utilizing a different peptide (Pos) for each HLA (Pos: HLA-A*01:01: […](SEQ ID NO: 409), HLA-A*02:01: […] (SEQ ID NO: 410), HLA-A*03:01: […] (SEQ ID NO: 411), HLA-A*24:02: […] (SEQ ID NO: 412), HLA-B*07:02: […] (SEQ ID NO: 413), HLA-B*08:01: […] (SEQ ID NO: 414), which could be cleaved by UV irradiation when bound to the HLA molecule. Upon cleavage, the resulting peptide fragments dissociated from the HLA class I complex since their length was insufficient to bind stably to HLA. Under the conditions in which peptide cleavage was performed (neutral pH, on melting ice), the peptide-free HLA complex remained stable.
# The exchange efficiency between the peptide of interest and Pos was analyzed using an HLA class I ELISA. The combined technologies allowed the identification of ligands for an HLA molecule of interest which are potentially immunogenic.
# Exchange control peptide Pos was a high affinity binder to the relevant HLA class I allele while exchange control peptide Neg was a non-binder. The UV control represented UV-irradiation of conditional HLA class I complex in the absence of a rescue peptide.
# The HLA class I ELISA is an enzyme immunoassay based on the detection of beta2-microglobulin (B2M) of (peptide-stabilized) HLA class I complexes. To this end streptavidin was bound onto polystyrene microtiter wells. After washing and blocking, HLA complex present in exchange reaction mixtures or ELISA controls was captured by the streptavidin on the microtiter plate via its biotinylated heavy chain. Non-bound material was removed by washing. Subsequently, horseradish peroxidase (HRP)-conjugated antibody to human B2M was added. The HRP-conjugated antibody binds only to an intact HLA complex present in the microtiter well because unsuccessful peptide exchange results in disintegration of the original UV-sensitive HLA complex upon UV illumination. In the latter case B2M was removed during the washing step. After removal of non-bound HRP conjugate by washing, a substrate solution was added to the wells. A coloured product formed in proportion to the amount of intact HLA complex present in the samples. After the reaction was terminated by the addition of a stop solution, absorbance was measured in a microtiter plate reader. The absorbance was normalized to the absorbance of an exchange control peptide (represents 100%). Suboptimal HLA binding of peptides with a moderate to low affinity for HLA class I molecules can also be detected by this ELISA technique (Rodenko, B et al. (2006) Nature Protocols 1: 1120-32).
# Peptides that had 10% or greater exchange efficiency in one of the 6 HLA alleles were considered for further immunogenicity testing and analysis.
# Binding of select neoepitopes to HLA-A*01:01, HLA-A*02:01, HLA-A*03:01, HLAA*24:02, HLAAB*07:02 and HLA-B*08:01 was evaluated using the assay described in Example 1. […] As a criterion for further evaluation, peptides with an exchange rate of at least 10% with the corresponding Pos peptide for at least one of the 6 HLA alleles that we considered for further evaluation. The exchange rates with the allele specific Pos peptides, of the 24 neoantigens so identified are summarized below in Table 17. Higher percentages correspond to stronger binding to the HLA allele.
# [1] = system: CD8+ T cells in PBMCs from human patients with metastatic castrate-resistant prostate cancer; test: Patient PBMC restimulation assay (in vitro immunogenicity, TNFα/IFNγ intracellular flow cytometry); type: cell-based; conditions: 9-mer peptide; for Maximum fold change over negative control: TNFα+IFNγ+CD8+ T cells, highest across PBMC donors evaluated; for Maximum frequency of TNFα^+IFNγ^+CD8^+ T cells (Percent): greatest frequency among all tested PBMC donors; for Immunogenic: patient PBMC restimulation
# Method: PBMCs from human patients with metastatic castrate-resistant prostate cancer were thawed using media (RPMI 1640 supplemented with Glutamax, 10% HI FBS, and 1× Sodium Pyruvate). Cells were counted and plated in a 96 well round bottom microplate at a concentration of 250,000 viable cells per well. Lyophilized peptides were solubilized in 100% DMSO and diluted in media to 10 μg/mL. Neoantigen peptides were added in equal volume to PBMCs for a final concentration of 5 μg/mL. CEF Peptide Pool “Plus” (Cellular Technologies, Ltd.) was utilized as a positive control and DMSO at the same final concentration as the experimental peptides was utilized as a negative control. Human IL-15 (Peprotech) was added to all wells at final concentration of 10 ng/mL.
# Plates were incubated at 37° C. (5% CO2) for a total of 13 days. Media was refreshed every 2 days with IL-15 (10 ng/mL final concentration) and IL-2 (R&D systems, 10 IU/mL final concentration). On day 12, PBMCs were re-stimulated with identical experimental peptides or controls, at same concentration as peptide stimulation on Day 1. After 1-hour incubation, protein Inhibitor Cocktail (eBioscience) was added to every well and plate was incubated overnight.
# On day 13, cells were stained for intracellular flow cytometry analysis. The cells were washed with PBS and stained with Live/Dead Fixable Aqua Dead Cell stain (Thermo-Fisher). Following the live/dead stain, cells were blocked using Biotin-Free Fc Receptor Blocker (Accurate Chemical & Scientific Corp). Extracellular cellular flow panel ([…] per well in 50 μL) consisted of CD3 PerCP-Cy5.5 (Biolegend), CD4 BV421 (Biolegend), and CD8 APC-Cy7 (Biolegend). After extracellular staining, cells were fixed using Foxp3/fTranscription Factor Staining Buffer Set (eBioscience) and stained for intracellular proteins (1:50 dilution) using TNFα FITC (R&D Systems) and IFNγ BV785 (Biolegend). Cells were washed and resuspended in stain buffer and analyzed using a BD Celesta flow cytometer.
# Flow cytometry cell staining analysis was completed using FlowJo v10. Cells were gated on live, singlet, CD3+ cells. The CD8+ T cells were analyzed for TNFα/IFNγ expression and the frequency of double positive TNFα/IFNγ CD8+ T cells was recorded. Responses were assessed to be positive when the frequency of double positive TNFα/IFNγ CD8+ T cells due to stimulation with an experimental peptide was increased greater than or equal to 2-fold over the DMSO only negative control for that patient. Peptides were analyzed in 1 to 7 patient samples.
# The 9 mer fragments shown in Table 13 were assessed for their ability to activate T cells using the Patient PBMC restimulation assay described in Example 1 using TNFα and IFNγ production by CD8^+ T cells as a readout. Self-antigens shown in Table 15 were also used in the assays. […] PBMCs from ten patients were evaluated.
molecule,measurement,setting,value
P60 (CYLRRQKRLKCEKQPGA; listed as Homo sapiens) [Peptide P60],"Exchange rate with allele specific Pos peptide, HLA-A*03:01",HLA-A*03:01,36.6%
same,Maximum fold change over negative control,[1],2.08
same,Maximum frequency of TNFα^+IFNγ^+CD8^+ T cells (Percent),[1],0.340%
same,Immunogenic,[1],Yes
YEAGMTLGEKFRVGNCKHLKMTRP (listed as Homo sapiens) [Neoantigen P82],"Exchange rate with allele specific Pos peptide, HLA-A*03:01",HLA-A*03:01,58.1%
same,Maximum fold change over negative control,[1],3.46
same,Maximum frequency of TNFα^+IFNγ^+CD8^+ T cells (Percent),[1],0.970%
same,Immunogenic,[1],Yes
P98: neoantigen 9 mer fragment used for PBMC stimulation (FIG. 5D) (IVWWCPMSR; listed as Homo sapiens) [Neoantigen P98],"Exchange rate with allele specific Pos peptide, HLA-A*03:01",HLA-A*03:01,51.1%
same,Maximum fold change over negative control,[1],14.93
same,Maximum frequency of TNFα^+IFNγ^+CD8^+ T cells (Percent),[1],1.000%
same,Immunogenic,[1],Yes
P56 (PKSEVRAKCKFSILNAK; listed as Homo sapiens) [Peptide P56],"Exchange rate with allele specific Pos peptide, HLA-A*03:01",HLA-A*03:01,6.8%
same,Maximum fold change over negative control,[1],11.57
same,Maximum frequency of TNFα^+IFNγ^+CD8^+ T cells (Percent),[1],1.620%
same,Immunogenic,[1],Yes
P46 (DDRNTFDIVWWCPMSRLRLALTVPPSTTTTCVTVPAWAA; listed as Homo sapiens) [Peptide P46],"Exchange rate with allele specific Pos peptide, HLA-A*03:01",HLA-A*03:01,10.3%
same,Maximum fold change over negative control,[1],2.33
same,Maximum frequency of TNFα^+IFNγ^+CD8^+ T cells (Percent),[1],0.140%
same,Immunogenic,[1],Yes
P73 (DSSGNLLERNSFEVRV; listed as Homo sapiens) [Peptide P73],"Exchange rate with allele specific Pos peptide, HLA-A*03:01",HLA-A*03:01,3.5%
same,Maximum fold change over negative control,[1],2.97
same,Maximum frequency of TNFα^+IFNγ^+CD8^+ T cells (Percent),[1],0.110%
same,Immunogenic,[1],Yes
P97 (GYLRMQGLMAQRLLLR; listed as Homo sapiens) [Peptide P97],"Exchange rate with allele specific Pos peptide, HLA-A*03:01",HLA-A*03:01,39%
same,Maximum fold change over negative control,[1],4.55
same,Maximum frequency of TNFα^+IFNγ^+CD8^+ T cells (Percent),[1],0.160%
same,Immunogenic,[1],Yes
YEAGMTLGGKILFFLFLLLPLSPFSLIF (listed as Homo sapiens) [Neoantigen P87],"Exchange rate with allele specific Pos peptide, HLA-A*03:01",HLA-A*03:01,2.4%
same,Maximum fold change over negative control,[1],3.24
same,Maximum frequency of TNFα^+IFNγ^+CD8^+ T cells (Percent),[1],0.120%
same,Immunogenic,[1],Yes
SLYHREKQLIAMDSAI (listed as Homo sapiens) [Neoantigen P22],"Exchange rate with allele specific Pos peptide, HLA-A*03:01",HLA-A*03:01,4.8%
same,Maximum frequency of TNFα^+IFNγ^+CD8^+ T cells (Percent),[1],0.120%
same,Immunogenic,[1],Yes
P58 (MMAEIISVHVPKILSGK; listed as Homo sapiens) [Peptide P58],"Exchange rate with allele specific Pos peptide, HLA-A*03:01",HLA-A*03:01,32.5%
same,Maximum frequency of TNFα^+IFNγ^+CD8^+ T cells (Percent),[1],5.370%
same,Immunogenic,[1],Yes
P61 (MFENGCYLGRQKRFKCE; listed as Homo sapiens) [Peptide P61],"Exchange rate with allele specific Pos peptide, HLA-A*03:01",HLA-A*03:01,2.1%
same,Maximum frequency of TNFα^+IFNγ^+CD8^+ T cells (Percent),[1],0.084%
same,Immunogenic,[1],Yes
B1,"Exchange rate with allele specific Pos peptide, HLA-A*03:01",HLA-A*03:01,4.1%
same,Maximum fold change over negative control,[1],5.00
same,Maximum frequency of TNFα^+IFNγ^+CD8^+ T cells (Percent),[1],0.480%
same,Immunogenic,[1],Yes
